# Values of other authors, collected in patent US10694749B2, “Insecticide formulation” (Wellmark International, priority 2016, dated 2020).
# System: Mosquito Larvae
# Details: after ingestion
substance,measurement,value
Bacillus thuringiensis israelensis [BTI],time to death of the first larvae after ingesting the bacteria,15 to 20 min
